Measurements from the supplement of paper PMC4862054.

Legend:
Assay in all cases: normalised response (% of control), CellTox Green; higher = less cell death (100 = DMSO, 0 = benzethonium chloride kill control)
Conditions in all cases: incubation time: 72 h
[1] = test system: BT-474
Outline: (§1)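 A 20 µl suspension of breast cancer cells was seeded into each well of 384-well plates containing compound at 5 concentrations in 10-fold steps over a compound-specific 10,000-fold range. After 72 h incubation, CellTox Green fluorescence (485/520 nm) was read first, and CellTiter-Glo luminescence was read after 10 min at room temperature. Each plate was normalised against 0.1 % DMSO (100) and a positive kill control (0), and each value is the normalised signal at one concentration.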

[2] = test system: BT-549
Outline: as §1

[3] = test system: CAL-120
Outline: as §1

[4] = test system: CAL-148
Outline: as §1

[5] = test system: CAL-51
Outline: as §1

[6] = test system: CAL-85-1
Outline: as §1

[7] = test system: DU-4475
Outline: as §1

[8] = test system: HCC1143
Outline: as §1

[9] = test system: HCC1599
Outline: as §1

[10] = test system: HCC1937
Outline: as §1

[11] = test system: HDQ-P1
Outline: as §1

[12] = test system: Hs578T
Outline: as §1

[13] = test system: MCF-10A
Outline: as §1

[14] = test system: MDA-MB-231
Outline: as §1

[15] = test system: MDA-MB-436
Outline: as §1

[16] = test system: MDA-MB-453
Outline: as §1

[17] = test system: MDA-MB-468
Outline: as §1

[18] = test system: MFM-223
Outline: as §1

| Structure (SMILES) | normalised response [1] [%] | normalised response [2] [%] | normalised response [3] [%] | normalised response [4] [%] | normalised response [5] [%] | normalised response [6] [%] | normalised response [7] [%] | normalised response [8] [%] | normalised response [9] [%] | normalised response [10] [%] | normalised response [11] [%] | normalised response [12] [%] | normalised response [13] [%] | normalised response [14] [%] | normalised response [15] [%] | normalised response [16] [%] | normalised response [17] [%] | normalised response [18] [%] |
| --- | --- | --- | --- | --- | --- | --- | --- | --- | --- | --- | --- | --- | --- | --- | --- | --- | --- | --- |
| Nc1ncn([C@@H]2O[C@H](CO)[C@@H](O)[C@H]2O)c(=O)n1 [Azacitidine] (10000 nM) | 80 | 99.8 | 96.5 | 97.7 | 75.7 | 110 | 86.7 | 87.7 | 92 | 93.3 | 103 | 84.9 | 81.2 | 75.5 | 55.6 | 98.8 | 73.4 | 89.7 |
| O=NN(CCCl)C(=O)NCCCl [Carmustine] (1000 nM) | 97.3 | 96.9 | 95.8 | 98 | 115 | 102 | 96.9 | 105 | 94.9 | 112 | 99 | 106 | 92.1 | 105 | 99.5 | 103 | 86 | 66.4 |
| O=NN(CCCl)C(=O)NCCCl [Carmustine] (10000 nM) | 98.8 | 84.3 | 98.7 | 98.7 | 100 | 114 | 95.3 | 54.2 | 102 | 86.4 | 91.3 | 100 | 104 | 96.9 | 88.9 | 99.4 | 138 | 94.8 |
| CC1=C2C[C@H]3[C@@H](CC=C4C[C@@H](O)CC[C@@]43C)[C@@H]2CC[C@]12O[C@@H]1C[C@H](C)CN[C@H]1[C@H]2C [Cyclopamine] (1000 nM) | 101 | 108 | 101 | 95.1 | 95.5 | 101 | 101 | 100 | 104 | 70 | 96.9 | 104 | 108 | 119 | 99.3 | 103 | 78.1 | 75.1 |
| CC1=C2C[C@H]3[C@@H](CC=C4C[C@@H](O)CC[C@@]43C)[C@@H]2CC[C@]12O[C@@H]1C[C@H](C)CN[C@H]1[C@H]2C [Cyclopamine] (10000 nM) | 98 | 59 | 97.8 | 100 | 98.9 | 66.8 | 103 |  | 101 |  | 110 | 51.4 | 58.9 | 116 | 92.2 | 103 | 155 | 89.6 |
| CC(=O)O[C@@]12CO[C@@H]1C[C@H](O)[C@@]1(C)C(=O)[C@H](O)C3=C(C)[C@@H](OC(=O)[C@H](O)[C@@H](NC(=O)OC(C)(C)C)c4ccccc4)C[C@@](O)([C@@H](OC(=O)c4ccccc4)[C@H]21)C3(C)C [Docetaxel] (100 nM) | 57.1 | 69.3 | 86.7 | 83.2 | 16.6 | 19.7 | 95.2 | 76 | 82.8 | 102 | 75.8 | 49.4 | 34.9 | -12.5 | 69 | 100 | 145 | 59.5 |
| CC(=O)O[C@@]12CO[C@@H]1C[C@H](O)[C@@]1(C)C(=O)[C@H](O)C3=C(C)[C@@H](OC(=O)[C@H](O)[C@@H](NC(=O)OC(C)(C)C)c4ccccc4)C[C@@](O)([C@@H](OC(=O)c4ccccc4)[C@H]21)C3(C)C [Docetaxel] (1000 nM) | 58.4 | 38.7 | 89.9 | 84.2 | 45.6 | 29.6 | 98.5 | 55.4 | 88.5 | 46.5 | 35.5 | 22.6 | 36.3 | -47.2 | 71.9 | 92.4 | 134 | 53.9 |
| CC1(C)CNc2cc(NC(=O)c3cccnc3NCc3ccncc3)ccc21 [Motesanib] (1000 nM) | 98 | 123 | 99.5 | 103 | 96.1 | 91.8 | 100 | 103 | 97.3 |  | 108 | 83.6 | 95.4 | 97.7 | 79 | 101 | 108 | 97 |
| CC[C@@H]1C(=O)OC[C@@H]1Cc1cncn1C [Pilocarpine] (4000 nM) | 96 | 112 | 99.3 | 73.7 | 104 | 95.5 | 95.3 | 72.1 | 92.5 |  |  | 70.9 | 101 | 97.8 | 81.4 | 101 | 66.5 | 69.2 |
| CC[C@@H]1C(=O)OC[C@@H]1Cc1cncn1C [Pilocarpine] (40000 nM) | 98.6 | 107 | 52.5 | 96.3 | 98.4 | 114 | 96.7 | 80.7 | 97 | 97.7 |  |  | 83.9 | 93.1 | 92.3 | 93.9 |  | 97.4 |
| Nc1nc2[nH]cnc2c(=S)[nH]1 [Thioguanine] (1000 nM) | 96.4 | 108 | 103 | 94 | 102 | 112 | 104 |  | 97.8 | 114 | 109 | 103 | 98.7 | 48.4 | 101 | 106 | 121 | 92.8 |
